From patent US20200368310A1, “TREATMENT WITH NMDA RECEPTOR MODULATORS” (Naurex, Inc, priority 2017, published 2020)
Residues, ends and D or L forms follow the SMILES beside them.

System: Male rats
Experiment: Sleep-wake cycle analysis by telemetric EEG recording in rats
Type: in vivo, rat
Conditions: for percentage of active waking: FIG. 4B
Description: Male rats were anesthetized and surgically implanted with 2 surface electrodes in the frontoparietal cortex and 2 depth electrodes in the CA1 region of the hippocampus (AP +5.0 mm, L ±2.5 mm, V +7.0 mm). After ≥10 days recovery, telemetric transmitters were connected to electrodes for electroencephalographic (EEG) recordings. On the day of experiment, rats were injected at the beginning of the light phase with rapastinel (3, 10, or 30 mg/kg, IV), ketamine (30 mg/kg, IP), or the positive control zolpidem (12 mg/kg, PO) using a treatment schedule based on a cross-over design (n=9-10/dose/group) in which rats received zolpidem or rapastinel at session 1 and then rapastinel and/or ketamine at sessions 2-4. Physiological saline was used as the vehicle control
Sleep-wake cycles were measured continuously following rapastinel treatment for the next 23 hours and were analyzed based on a spectral power analysis. Latencies to first occurrence of SWS and REM sleep, as well as percent time spent in SWS, REM sleep, and wakefulness, were calculated for the total recording sessions (23 hours), the half cycles (0-12 and 12-23 hours), and 5 time segments (0-4, 4-8, 8-12, 12-18, and 18-23 hours). Depth of SWS (defined as the ratio between alpha and delta spectral power) was also calculated. Differences between vehicle and test drugs were calculated for all variables, for each animal, and for the means of the animals per treatment group, and analyzed using a paired t-test

SMILES: CNC1(c2ccccc2Cl)CCCCC1=O (stereo not drawn) [Ketamine, ketamine]
- alpha/delta ratio (depth of SWS) (ketamine 30 mg/kg IP, 0-4 hours post-dose, P<0.001): concomitant decrease
- duration of SWS (ketamine 30 mg/kg IP, 0-4 hours post-dose, P<0.001, FIG. 2A): decreased
- duration of REM sleep (ketamine 30 mg/kg IP, 0-4 hours post-dose, P<0.001, FIG. 3): decreased
- waking (duration) (ketamine 30 mg/kg IP, 12-23 hours post-dose, P<0.01, FIG. 4A): small but significant decrease
- REM sleep (duration) (ketamine 30 mg/kg IP, 12-23 hours post-dose, P<0.05, FIG. 3): compensatory increase
- percentage of active waking (ketamine 30 mg/kg IP, 12-23 hours post-dose, P<0.05): significantly decreased
- duration of waking (ketamine 30 mg/kg IP, first 4 hours post-dose, P<0.001, FIG. 4A): significantly increased

SMILES: C[C@@H](O)[C@H](N)C(=O)N1CCC[C@H]1C(=O)N1CCC[C@H]1C(=O)N[C@H](C(N)=O)[C@@H](C)O [Rapastinel, rapastinel] (H-TPPT-NH2)
- percentage of active waking (rapastinel 30 mg/kg IV, 8-12 hours post-dose, P<0.01): small but significant decrease
- percentage of active waking (rapastinel 30 mg/kg IV, 18-23 hours post-dose, P<0.05): small but significant decrease
- percentage of active waking (rapastinel, all doses and periods except 8-12 and 18-23 hours at 30 mg/kg): no effect

SMILES: Cc1ccc(-c2nc3ccc(C)cn3c2CC(=O)N(C)C)cc1 [Zolpidem, zolpidem]
- percentage of active waking (zolpidem 12 mg/kg PO, 0-12 hours post-dose, P<0.05): significantly decreased
- duration of REM sleep (zolpidem 12 mg/kg PO, 4-8 hours post-dose, P<0.05, FIG. 3): significantly decreased
